The record followed here is patent EP1001770B1, “TAZAROTENE AND UVB PHOTOTHERAPY TREATMENT FOR PSORIASIS” (ALLERGAN, INC., priority 1997, dated 1998).

A short description of data set [1]: Same clinical study: adverse events and tolerability. It counts as in vivo, humans. The source says:
(§1) The Study objective was to assess safety and efficacy of pre-treatment with Tazarotene 0.1% gel and UVB phototherapy in comparison with the Tazarotene vehicle (placebo) and UVB phototherapy and UVB phototherapy, alone, for 10 weeks. During UVB phototherapy, topical agents were applied three times weekly to the target lesion by the phototherapy nurse. The study was a multicenter, investigator-masked study including 60 subjects and 120 target lesions. During the two-week pre-UVB phototherapy period the patients were randomly assigned to receive two of the following treatments: Tazarotene 0.1% gel once a day; vehicle gel once a day; or no treatment. The topical agents were applied once daily. Prior to UVB therapy, the minimal erythemal dose (MED) was assessed using a range of 20 mJoules/cm^2 up to 100 mJoules/cm^2. Initial starting UVB dose is 25% of MED. If MED is immeasurable, starting dose is 25 mJoules/cm^2. During the ten-week UVB phototherapy period the patients were treated with UVB therapy three times a week and topical therapy three times weekly (0.1% Tazarotene gel, vehicle gel, or no treatment) administered by the phototherapy nurse after UVB exposure. Study population was as follows: male or non-reproductive female; 18 years or older; stable plaque psoriasis; two bilaterally symmetrical plaques accessible to phototherapy; not exceeding 50% of TBS; baseline plaque elevation of at least four (moderate, in 0-8 scoring system); no oral retinoid within two months; no excessive vitamin A intake; no oral psoriatic therapy (other than retinoid) or PUVA within one month; no UVB within two weeks; no significant systemic disease or immunosuppression. The UVB exposure was increased until either improvement in psoriasis was noted or MED was reached. If one target lesion reached MED earlier than the other, a photo-opaque covering was applied to the former so the latter site could still be treated with a higher dose of UVB irradiation. If both target lesions cleared, UVB was discontinued. […] The following evaluation criteria was used: • Efficacy Variable • Plaque elevation, scaling, erythema: • Grading Scale • 0 = none, 2= mild, 4=moderate, 6=severe, 8=very severe (with whole-point increments (1, 3, 5, 7) serving as mid-points) • Global response to treatment • Total cumulative UVB exposure (mJoules/cm^2)
The following adverse events were reported during the study: […]

In a further data set the test system is stable plaque psoriasis. The data set is described as follows: Clinical study of Tazarotene 0.1% gel plus UVB phototherapy versus vehicle plus UVB or UVB alone: efficacy on target lesions. It counts as in vivo, humans.
From the text: as §1
Treatment success is defined as moderate response or better.

[2] abbreviates: adverse events reported during the study (count), with UVB phototherapy.

In data set [1] (setting [2]), `CCOC(=O)c1ccc(C#Cc2ccc3c(c2)C(C)(C)CCS3)nc1` [Tazarotene] had a Burning sensation of 1, an Itching of 1, a Lesional irritation of 0 and a Perilesional irritation of 2. Moreover, the Perilesional tenderness in data set [1] (setting [2]) turned out to be 0. The “severity of adverse events” value in data set [1] (all reported adverse events) is “mild”. The reduction in plaque result in the data set on stable plaque psoriasis (Figure 1, Tazarotene plus UVB compared with UVB treatment alone) is given as “more effective”. The reduction in scaling result in the data set on stable plaque psoriasis (Figure 2, Tazarotene plus UVB compared with UVB treatment alone) is on record as “more effective”. In addition, in the data set with stable plaque psoriasis (Figure 3, Tazarotene plus UVB compared with UVB treatment alone), the reduction in erythema result is reported as “more effective”. Moreover, the treatment success rate in the data set on stable plaque psoriasis (Figure 4, Tazarotene and UVB phototherapy, by day 81, success = moderate response or better) is listed as 100%. The reductions in plaque entry in the data set with stable plaque psoriasis (Figure 5, Tazarotene and UVB compared with UVB alone or UVB with vehicle (placebo)) is reported as “greater”. Besides, the reductions in scaling entry in the data set with stable plaque psoriasis (Figure 6, Tazarotene and UVB compared with UVB alone or UVB with vehicle (placebo)) is reported as “greater”. The reductions in erythema entry in the data set with stable plaque psoriasis (Figure 7, Tazarotene and UVB compared with UVB alone or UVB with vehicle (placebo)) is “greater”. Besides, the success rate in the data set on stable plaque psoriasis (Figure 8, Tazarotene and UVB treatment, at 81 days) is 100%. The success entry in the data set with stable plaque psoriasis (Figure 8, Tazarotene and UVB, at day 53) is recorded as “about 90%”. For the same compound, the “time to reach treatment success” value with stable plaque psoriasis (Tazarotene and UVB compared with vehicle and UVB) is given as “more quickly”. For the same compound, in the data set with stable plaque psoriasis (Tazarotene and UVB compared with vehicle and UVB or UVB alone), the “overall effectiveness in treating psoriasis” value is given as “more effective”.
